These results are taken from US5461057A, “Hydro-ethano-indeno-pyridines” (priority 1994, dated 1995).

One data set concerns the target ELAM-1 (Homo sapiens, UniProt P16581). In words: cell-based. As for the experimental part:
Cell adhesion to ELAM-1 was measured essentially as described previously (Pal et al., J. Biomed. Res. 2: 53, 1992). Undifferentiated HL-60 leukemia cells were prelabelled for 30 minutes with 1 μM calcein AM in DPBS without calcium or magnesium, and the cells were washed twice with the same medium before addition to 96-well plates containing monolayers of mouse L cells (5×10^4 cells/well) transfected with cDNA for the adhesion molecule ELAM-1. Adhesion was allowed to proceed for 30 minutes at room temperature before washing and quantitation of the remaining fluorescent HL-60 cells as described above.
ELAM-1 (E-selectin) is a member of the selectin class of adhesion molecules.

In data set [1] the test system is LOX human melanoma cell adhesion to polylysine. In words: LOX melanoma cell adhesion to polylysine. It counts as cell-based. Particulars: read-out: Poly Lys IC50.
In data set [2] the test system is M27 murine lung carcinoma cell adhesion to fibronectin. In words: M27 lung carcinoma cell adhesion to fibronectin. The class given is cell-based. Particulars: Mus musculus; read-out: M27 FN IC50. As for the experimental part: (§1) Adhesion assays were run essentially as described previously (Pai et al., J. Biomed. Res. 2: 53, 1992). 96-well plates were coated with human fibronectin (140 ng/well), human vitronectin (75 ng/well), human collagen I (100 ng/well), human collagen IV (100 ng/well), human fibrinogen (1 μg/well), murine laminin (600 ng/well), or polylysine, and incubated overnight in a humidified 37° C. incubator. Excess fibronectin or other substrate was then removed and 0.2 ml of 2 mg/ml bovine serum albumin (BSA)in Dulbecco's phosphate-buffered saline (DPBS) was added to each well, incubated for 2 hours at 37° C., and removed. LOX human melanoma cells, M27 murine lung carcinoma cells or B16F10 mouse melanoma cells were detached from tissue culture flasks with RPMI medium containing 0.2M urea and 10 mM EDTA, and 0.18 ml of cells were added to each well to a final cell concentration of 1×10^5 cells/well. For inhibition studies 20 μl of 10× compound was added to the wells prior to cell addition. Cells were allowed to adhere for 1 hour at 37° C. The wells were then gently washed twice with 0.2 ml DPBS. The fluorescent dye calcein AM (Molecular Probes, Eugene Oreg.) in DPBS (0.1 ml of 1 μM) was added to each well, and the plates were incubated for 1 hour at room temperature. Adherent cells were quantitated by reading the fluorescence on a Cytofluor 2300 fluorescent plate reader (Millipore) at 485 nm excitation and 530 nm emission.

The test system of data set [3] is LOX human melanoma cell adhesion to human collagen IV. As to the kind of experiment: LOX cell adhesion to collagen IV. The class given is cell-based. To be noted: read-out: Collagen IV IC50. On the procedure:
as §1

A further data set addresses T1, ICAM-1 (Homo sapiens, UniProt P05362).
T1 construct: recombinant soluble ICAM-1 (2 μg/well)
In words: HL-60 cell adhesion to recombinant soluble ICAM-1. The class given is cell-based. To be noted: HL-60 cells. On the procedure:
For measurement of cell adhesion to ICAM-1, HL-60 human leukemia cells were induced to differentiate in the presence of DMSO for 6 days. Adhesion of DMSO-differentiated HL-60 cells to recombinant soluble ICAM-1 (2 μg/well) was measured as described above for LOX cell adhesion, except that the adhesion was allowed to proceed for 30 minutes, rather than 1 hour, at 37° C.
ICAM-1 is a cell surface adhesion molecule that participates in cell-cell adhesion interactions, rather than cell-matrix adhesion interactions.

In the next data set the test system is LOX human melanoma cells. As to the kind of experiment: Tumor cell invasion through collagen/fibronectin coated membranes. The class given is cell-based. Particulars: for IC50: Homo sapiens, 5 hours; for inhibition of in vitro tumor cell invasion: fibronectin/collagen matrix. As for the experimental part: […] Cell Invasion Through Collagen/Fibronectin Coated Membranes:
Nucleopore polycarbonate membranes (8 μm pore size) were coated with 0.05 ml of type I collagen and allowed to dry overnight. 210 μl of serum free DMEM with BSA was added to each Boyden chamber. Membranes were placed in chambers and upper chambers were screwed on. Human fibronectin (50 μl of 0.1 mg/ml solution in DMEM with BSA) was added to the top chamber and allowed to sit on membranes for 1 hour at room temperature. Compounds (50 μl) at 10× concentration in DMEM with BSA were added to the chambers. LOX melanoma cells were detached from flasks with trypsin/EDTA solution and resuspended in RPMI with 10% fetal bovine serum. Cells were centrifuged, washed 2× with DMEM with BSA, and resuspended in 10 ml of DMEM with BSA. LOX cells (0.45 ml of 7.8×10^5 cells per ml) were added to each chamber and chambers were incubated for 5 hours at 37° C. The medium was removed from the upper chamber by aspiration, the top chamber was unscrewed, and the membrane was removed. The membrane was inverted, pinned to a dissecting tray, and fixed with Diff Quik fixative for 3 minutes The fixative was then removed and Diff Quik Stain was added for 2 minutes. The stain was decanted and membranes were rinsed with distilled water. Membranes were inverted onto glass slides, and non-invading cells were wiped away with a cotton swab. Permount was added to the slide and the membrane was covered with a cover slip. The number of cells that invaded was quantitated on a Nikon TMS microscope with C-2 Image Analyzer software (Olympus Corp.).
The greater potency of the compounds in this assay (IC50 for compound B<400 nM) may result from the longer duration of this assay (5 hours) relative to the fibronectin adhesion assay (1 hour).

Data set [4] in a line: Calcein cytotoxicity assay. It counts as cell-based. Particulars: human, lox melanoma cells; for CC50 at 2 h / CC50 at 6 h: calcein AM assay; for CC50 at 2 h: read-out: 2 Hr Tox LD50; for CC50 at 6 h: read-out: 6 Hr Tox LD50.

Where two headings read alike, the source gives them in different places. Where only a bound is given, the exact number is not on record here.

ELAM-1, sequence (P16581 22-610): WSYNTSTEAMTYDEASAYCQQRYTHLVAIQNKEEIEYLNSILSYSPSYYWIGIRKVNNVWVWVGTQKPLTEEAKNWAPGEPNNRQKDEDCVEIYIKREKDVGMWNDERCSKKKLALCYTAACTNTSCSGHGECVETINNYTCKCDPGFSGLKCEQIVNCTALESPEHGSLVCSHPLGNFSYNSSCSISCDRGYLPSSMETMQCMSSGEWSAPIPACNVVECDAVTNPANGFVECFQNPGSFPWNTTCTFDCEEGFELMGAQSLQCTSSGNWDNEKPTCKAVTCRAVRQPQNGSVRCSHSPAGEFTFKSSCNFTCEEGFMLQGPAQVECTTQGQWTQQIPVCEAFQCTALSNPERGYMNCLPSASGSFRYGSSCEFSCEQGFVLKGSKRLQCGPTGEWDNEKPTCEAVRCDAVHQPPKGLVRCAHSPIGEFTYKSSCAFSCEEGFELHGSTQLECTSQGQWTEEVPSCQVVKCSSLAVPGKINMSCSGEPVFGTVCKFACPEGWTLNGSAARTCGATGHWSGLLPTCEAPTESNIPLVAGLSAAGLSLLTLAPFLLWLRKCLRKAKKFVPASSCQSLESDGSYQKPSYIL
T1 sequence (P05362 28-480 limits assumed): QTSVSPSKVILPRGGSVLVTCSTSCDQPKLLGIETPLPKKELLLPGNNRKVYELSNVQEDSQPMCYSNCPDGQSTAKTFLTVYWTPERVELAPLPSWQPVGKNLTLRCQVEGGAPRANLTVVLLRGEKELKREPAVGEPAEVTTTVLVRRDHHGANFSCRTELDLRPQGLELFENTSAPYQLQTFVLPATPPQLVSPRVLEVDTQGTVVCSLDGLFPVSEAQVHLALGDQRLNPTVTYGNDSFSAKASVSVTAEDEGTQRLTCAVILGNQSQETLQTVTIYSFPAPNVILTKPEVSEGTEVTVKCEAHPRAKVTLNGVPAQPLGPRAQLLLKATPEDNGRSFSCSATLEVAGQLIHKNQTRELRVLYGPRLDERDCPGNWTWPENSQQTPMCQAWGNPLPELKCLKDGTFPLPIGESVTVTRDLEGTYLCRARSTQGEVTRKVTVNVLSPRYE

Turning to `CN1C2CCC1C1C(=C(c3ccc(Cl)cc3)c3ccccc31)C2` (stereo not drawn) [C], the half-maximal inhibitory concentration (IC50) was more than 50 µM against ELAM-1; 248 µM in data set [1]; 13.7 µM in data set [2]; 9.9 µM in data set [3]; 24.8 µM on ICAM-1; 0.66 µM in the data set with LOX human melanoma cells (read-out: Invasion IC50). In the data set with LOX human melanoma cells, the “inhibition of in vitro tumor cell invasion” value (from here on “inhibition”) is “inhibit in vitro tumor cell invasion through a fibronectin/collagen matrix”. In data set [4] (2 hours), the CC50 at 2 h was 85.3 µM. In data set [4] (6 hours), the CC50 at 6 h is 22.5 µM.
Consider `COc1ccc(C2=C3CC4CCC(N4)C3c3ccccc32)cc1` (stereo not drawn) [Compound B], for which the half-inhibitory concentration (IC50) is more than 50 µM against ELAM-1; 22.3 µM in data set [1]; 17.1 µM in data set [2]; 16.2 µM in data set [3]; more than 50 µM at ICAM-1; less than 0.4 µM in the data set on LOX human melanoma cells (read-out: Invasion IC50). The 50% inhibitory concentration (IC50) with LOX human melanoma cells (read-out: Invasion IC50 (text)) is less than 0.4 µM. The “inhibition” value in the data set on LOX human melanoma cells was “inhibit in vitro tumor cell invasion through a fibronectin/collagen matrix”. The CC50 at 2 h in data set [4] (2 hours) was 74.5 µM. Moreover, in data set [4] (2 hours, calcein AM, read-out: selectivity for blockade of fibronectin adhesion vs. cytotoxicity (2 Hour Tox)), the selectivity ratio at 2 h is 15. The CC50 at 6 h in data set [4] (6 hours) was 24.6 µM. For the same compound, in data set [4] (6 hours, calcein AM, read-out: selectivity for blockade of invasion vs. cytotoxicity (6 Hour Tox)), the selectivity ratio at 6 h was more than 61.
Regarding `Cc1ccc(C2=C3CC4CCC(C3c3ccccc32)N4C)cc1` (stereo not drawn) [J], the IC50 was more than 50 µM on ELAM-1; 53.2 µM in data set [1]; 17.9 µM in data set [2]; 10 µM in data set [3]; more than 50 µM on ICAM-1; 0.48 µM in the data set with LOX human melanoma cells (read-out: Invasion IC50). Moreover, the “inhibition” value in the data set on LOX human melanoma cells is recorded as “inhibit in vitro tumor cell invasion through a fibronectin/collagen matrix”. Also, in data set [4] (2 hours), the CC50 at 2 h was 58.4 µM. Besides, the CC50 at 6 h in data set [4] (6 hours) is 30.6 µM.

In general, IC50 refers to the concentration at which inhibition is half-maximal.
